Reference: US9573983B2, “Compositions including I-domain antigen conjugate compounds and methods for treatment of autoimmune disorders” (University of Kansas, priority 2012, dated 2017)

Assays:
mouse EAE model = assay: Suppression of EAE in PLP139-151/CFA-immunized mice (Example 1); format: in vivo, female inbred SJL/J mice; conditions: i.v., IDAC 26 nmol/injection days 4, 7, Ac-PLP-BPI-NH2-2 100 nmol/injection days 4, 7, 10, vs PBS
Method: Female inbred SJL/J mice, 5-7 weeks old, were randomly divided into different groups. All mice were immunized with PLP139-151 in Freund's complete adjuvant (CFA) to induce EAE, as reported previously (3, 4). The PLP/CFA emulsion (50 μL per site) was administered to four separate regions above the shoulder and on the flanks. In addition, 200 ng of pertussis toxin (List Biological Laboratories Inc., Campbell, Calif.) was injected intraperitoneally on day 0 and 2.
After disease stimulation, one group of mice received intravenous (i.v.) injections of 26 nmol/injection/day of the conjugate IDAC on days 4 and 7. The second and third groups of mice received i.v. injections of 100 nmol/injection/day of Ac-PLP-BPI-NH2-2 and 100 microliter of PBS, respectively, on days 4, 7, and 10. The animals were weighed and observed daily. Disease progression was evaluated observed using a blinded method as reported previously (3, 4). The clinical scores were rated using the following scale: 0—no clinical signs of disease; 1—tail weakness or limp tail; 2—paraparesis (weakness or incomplete paralysis of one or two hind limbs); 3—paraplegia (complete paralysis of two hind limbs); 4—paraplegia with forelimb weakness or paralysis; and 5—moribund or dead.
Statistical differences among the groups in clinical disease scores were determined by calculating the average score for each mouse from the day of disease onset to day 20 by One-way Analysis of Variance followed by Fisher's least significant difference using StatView (SAS Institute, Cary, N.C.). Statistical differences among the groups in body weight were also analyzed in the same way. The presence of significant difference is denoted with p-values of <0.05 or <0.001.

EAE mouse model [1] = conditions: earlier study (ref. 7); cited from earlier work
EAE mouse model [2] = assay: Suppression of EAE, prophylactic and vaccine-like treatment (Example 2); format: in vivo, SJL/J female mice
Method: Six-to-eight week old SJL/J female mice were immunized subcutaneously with 200 μg PLP139-151 peptide in a 0.2 ml emulsion consisting of equal volumes of PBS and complete Freund's adjuvant (CFA) containing killed mycobacterium tuberculosis strain H37RA at a final concentration of 4 mg/ml (Difco, Detroit, Mich.). The PLP/CFA emulsion was administered to regions above the shoulder and the flanks (total of 4 sites, 50 μl at each injection site). In addition, 200 ng of pertussis toxin was injected intraperitoneally on the day of immunization (day 0) and 2 days post-immunization.
The mice then received either intravenous or subcutaneous injections of IDAC (10 or 26 nmol/injection) or peptides (100 nmol/injection for Ac-PLP-BPI-NH2-2 or 50 nmol/injection/mouse for Ac-PLP-cIBR1-NH2). The prophylactic disease suppression was carried out with subcutaneous or intravenous injections of IDAC molecules on days 4 and 7, or BPI molecules on days 4, 7, and 10. Mice receiving vaccine-like treatment were given subcutaneous injections of IDAC and BPI molecules at 11, 8, and 5 days prior to the induction of disease. As negative controls, mice were treated with PBS, 1-domain, and GMB-I-domain. Disease progression was evaluated by monitoring the change in weight of the mice and clinical scoring based on the severity of nerve damage ranging from 0 to 5: 0—no clinical symptoms of disease; 1—tail weakness or limp tail; 2—paraparesis (weakness or partial paralysis of one or two hind limbs); 3—paraplegia (complete paralysis of two hind limbs); 4—paraplegia with forelimb weakness or paralysis; 5—moribund (at this point, the affected mice were euthanized).
Statistical differences among the groups in clinical disease scores were determined by calculating the average score for each mouse from day 12 to day 17 by one-way analysis of variance followed by Fisher's least significant difference. Statistical differences in body weight among groups were also analyzed in the same fashion, but from day 12 to day 24. Comparison of cytokine concentrations was also performed by one-way analysis of variance. All analyses were performed using StatView (SAS Institute, Cary, N.C.).

[3] = Solubility of peptide during conjugation; format: physicochemical; conditions: conjugation reaction mixture; peptide dissolved in DMSO before addition

Row | Substance | clinical disease scores (suppression of EAE) (mouse EAE model; p<0.0001, days 12-17) | incidence of disease (mouse EAE model; p<0.0001, days 12-24) | suppression of EAE, capped vs uncapped peptide (EAE mouse model [1]) | clinical scores (suppression of EAE) (EAE mouse model [2]; vaccine-like s.c. days -11, -8, -5, IDAC-3 10 nmol/injection, Ac-PLP-BPI-NH2-2 100 nmol/injection, vs PBS, p<0.005, days 12-17) | change in body weight (EAE mouse model [2]; vaccine-like s.c. days -11, -8, -5, IDAC-3 10 nmol/injection, Ac-PLP-BPI-NH2-2 100 nmol/injection, vs PBS, p<0.005, days 12-24) | onset of disease (incidence of disease) (EAE mouse model [2]; vaccine-like s.c., IDAC-3 26 nmol/injection days -11, -8, Ac-PLP-BPI-NH2-2 100 nmol/injection days -11, -8, -5) | relapse of disease (long-term effect) (EAE mouse model [2]; vaccine-like s.c., IDAC-3 26 nmol/injection days -11, -8, Ac-PLP-BPI-NH2-2 100 nmol/injection days -11, -8, -5, days 45-55) | solubility [3]
1 | Ac-HSLGKWLGHPDKF-(AcpGAcpGAcp)2-ITDGEATDSG-NH2 [Ac-PLP-BPI-NH2-2, reference compound] | complete suppression of the disease | completely eliminated | could suppress EAE better than its uncapped counterpart (PLP-BPI) | significantly suppressed EAE compared to PBS | significantly suppressed EAE compared to PBS | Delay in the onset of disease | along-term effect to prevent relapse | 
2 | Ac-GWYRSPFSRVVHLC-NH2 [MOG-Cys, Ac-GWYRSPFSRVVHLC-NH2] |  |  |  |  |  |  |  | low solubility
